Measured values taken from patent US6967213B2, “Isothiazole derivatives, process for the preparation thereof, and pharmaceutical composition including the same” (CJ Corp., priority 2003, dated 2005).

Experiments:
[1] = target: T1, cyclooxygenase-2 (Mus musculus, UniProt Q05769); assay: Inhibitive effects against cyclooxygenase-2 using Raw 264.7 (interferon/LPS-induced PGE2, EIA); format: cell-based; conditions: Raw 264.7 cells, interferon + LPS, 18 hours
T1 construct: After seeding 2×10^6 cells of Raw 264.7 cell (obtained from Korean cell line bank, Deposit No. 40071) into each of 12-well plates; endogenous in cells; host or cells: Raw 264.7 (Korean cell line bank, Deposit No. 40071), aspirin-pretreated, induced with interferon and LPS
T1 sequence (Q05769 18-604): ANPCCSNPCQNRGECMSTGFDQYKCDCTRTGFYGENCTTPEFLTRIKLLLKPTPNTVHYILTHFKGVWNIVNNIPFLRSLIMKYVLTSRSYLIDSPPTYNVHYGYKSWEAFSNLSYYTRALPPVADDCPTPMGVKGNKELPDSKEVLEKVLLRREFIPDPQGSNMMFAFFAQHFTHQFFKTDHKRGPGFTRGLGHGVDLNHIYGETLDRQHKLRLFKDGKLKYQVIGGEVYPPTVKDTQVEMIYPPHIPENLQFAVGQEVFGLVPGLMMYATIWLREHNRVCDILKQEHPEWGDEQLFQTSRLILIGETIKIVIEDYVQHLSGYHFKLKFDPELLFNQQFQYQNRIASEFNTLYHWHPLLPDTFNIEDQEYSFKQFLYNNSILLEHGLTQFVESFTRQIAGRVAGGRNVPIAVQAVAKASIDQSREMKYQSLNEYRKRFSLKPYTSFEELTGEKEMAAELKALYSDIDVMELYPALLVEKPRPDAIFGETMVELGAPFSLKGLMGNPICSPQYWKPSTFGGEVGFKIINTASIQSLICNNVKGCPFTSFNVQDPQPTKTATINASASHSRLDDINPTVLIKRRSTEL
Procedure: In addition, the samples were treated with 100 units/ml of interferon ? and 100 ng/ml of lipopolysaccharide(LPS), and cultured for 18 hours. Then, the media was transferred to other test tubes and PGE 2 was quantitated by using EIA kit (Cayman Chemicals).
The % inhibition was calculated as follows, and the results were described in Table 1.
% inhibition={(PGE2 concentration compensated with interferon ? and LPS-PGE2 concentration compensated with analysis sample)/(PGE2 concentration compensated with interferon ? and LPS)}×100

[2] = target: T2, cyclooxygenase-1 (Homo sapiens, UniProt P23219); assay: Inhibitive effects against cyclooxygenase-1 using U-937 (PGE2 quantitation); format: cell-based; conditions: U-937 cells, arachidonic acid substrate
T2 construct: A cultured U-937 (humane lymphoma cell with Deposit No. 21593, obtained from Korean cell line bank) was centrifuged to collect the pellet; endogenous in cells; host or cells: U-937 (Korean cell line bank, Deposit No. 21593)
Procedure: Then, the pellet was diluted with 1×HBSS(Hank's balanced salt solution) at the concentration of 1×10^6 cells/ml, and 1 ml of them was transferred into each of 12-well plates.
Arachidonic acid as a substrate was dissolved in ethanol to prepare a stock solution with a concentration of 10 mM, followed by diluting with 1×HBSS to prepare the solution of 1 mM. 10 μl of 1 mM Arachidonic acid solution was added to each of the treated wells and the mixture was cultured at 37° C. in CO2 incubator for 30 minutes. The cell solution of each well was collected in the centrifuge tube and centrifuged at 4° C., for 5 minutes at 10,000 rpm. As PGE2 existed in the supernatant separated from collected cell, the concentration of PGE2 was quantitated by using monoclonal kit from Cayman Chemicals, and the concentration of samples and DMSO vehicle were compared to estimate the inhibition ratio (%) of each compound against cyclooxygenase-1. Ultimately, the inhibition effect against the cyclooxygenase-1 enzyme was obtained from the result.

T2 sequence (P23219 24-599): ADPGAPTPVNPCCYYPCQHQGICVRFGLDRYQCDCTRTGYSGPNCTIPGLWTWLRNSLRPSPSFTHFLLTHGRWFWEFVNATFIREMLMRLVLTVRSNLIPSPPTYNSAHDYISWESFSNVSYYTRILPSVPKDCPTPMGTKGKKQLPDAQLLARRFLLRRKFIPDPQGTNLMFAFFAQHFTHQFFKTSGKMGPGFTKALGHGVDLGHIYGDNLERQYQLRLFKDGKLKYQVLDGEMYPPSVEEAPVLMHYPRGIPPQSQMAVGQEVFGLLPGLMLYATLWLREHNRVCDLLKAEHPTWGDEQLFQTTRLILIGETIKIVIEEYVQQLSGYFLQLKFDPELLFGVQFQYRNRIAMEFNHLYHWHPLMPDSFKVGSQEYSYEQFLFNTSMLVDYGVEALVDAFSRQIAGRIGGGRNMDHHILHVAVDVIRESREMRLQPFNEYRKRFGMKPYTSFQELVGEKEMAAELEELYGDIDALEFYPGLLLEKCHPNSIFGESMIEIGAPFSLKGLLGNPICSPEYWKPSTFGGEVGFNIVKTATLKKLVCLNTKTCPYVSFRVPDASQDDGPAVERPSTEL

| SMILES | Inhibitory effects of cyclooxygenase (COX): COX-2 (30 nM) [1] [% inhibition] | Inhibitory effects of cyclooxygenase (COX): COX-1 (10 μM) [2] [% inhibition] |
| --- | --- | --- |
| Cc1snc(-c2ccc(S(C)(=O)=O)cc2)c1-c1ccc(F)cc1 [Example 1, 4-(4-fluorophenyl)-3-(4-methanesulfonyl)-5-methyl-isothiazole] | 63.7 | 29.8 |
| Cc1snc(-c2ccc(Br)cc2)c1-c1ccc(S(N)(=O)=O)cc1 [Example 3, 4-[3-(4-bromophenyl)-5-methyl-isothiazole-4-yl]-benzenesulfonamide] | 58.5 | 38.8 |
| COc1ccc(-c2nsc(C)c2-c2ccc(S(N)(=O)=O)cc2)cc1 [Example 4, 4-[3-(4-methoxyphenyl)-5-methyl-isothiazole-4-yl]-benzenesulfonamide] | 67.7 | 79.5 |
| COc1ccc(-c2nsc(C)c2-c2ccc(S(C)(=O)=O)cc2)cc1 [Example 8, 3-(4-methoxyphenyl)-4-(4-methanesulfonylphenyl)-5-methyl-isothiazole] | 76.4 | 80.1 |
| Cc1snc(-c2ccc(F)cc2)c1-c1ccc(S(C)(=O)=O)cc1 [Example 9, 3-(4-fluorophenyl)-4-(4-methanesulfonyl)-5-methyl-isothiazole] | 65.1 | 67.2 |

Continued, values first:

| Inhibitory effects of cyclooxygenase (COX): COX-2 (30 nM) [1] [% inhibition] | Inhibitory effects of cyclooxygenase (COX): COX-1 (10 μM) [2] [% inhibition] | SMILES |
| --- | --- | --- |
| 60.2 | 35.5 | Cc1snc(-c2ccccc2)c1-c1ccc(S(N)(=O)=O)cc1 [Example 2, 4-(5-methyl-3-phenyl-isothiazole-4-yl)-benzenesulfonamide] |
| 72.3 | 77.8 | Cc1snc(-c2ccc(F)cc2)c1-c1ccc(S(N)(=O)=O)cc1 [Example 5, 4-[3-(4-fluorophenyl)-5-methyl-isothiazole-4-yl]-benzenesulfonamide] |
| 69.0 | 56.4 | Cc1snc(-c2ccccc2)c1-c1ccc(S(C)(=O)=O)cc1 [Example 6, 4-(4-methanesulfonylphenyl)-5-methyl-3-phenyl-isothiazole] |
| 65.6 | 45.7 | Cc1snc(-c2ccc(Br)cc2)c1-c1ccc(S(C)(=O)=O)cc1 [Example 7, 3-(4-bromophenyl)-4-(4-methanesulfonylphenyl)-5-methyl-isothiazole] |
